Type in all cases: functional
The test system of assay [1] is MM1.S. Put plainly: Induction of apoptosis in human MM1.S cells assessed as early apoptotic cells at 5 micromol/L incubated for 48 hrs by annexin V/PI staining based flow cytometry (reference value: 8.03%). As to conditions: dose 5 µmol/L, at 5 µM. For orientation: Flow cytometry measures light scatter and fluorescence of single cells or particles in a stream.
Assay [2] deals with MM1.S. Put plainly: Induction of apoptosis in human MM1.S cells assessed as viable cells at 5 micromol/L incubated for 48 hrs by annexin V/PI staining based flow cytometry (reference value: 88.2%). As to conditions: dose 5 µmol/L, read-out: Activity.
Assay [3] concerns MM1.S. Nature of the assay: Induction of apoptosis in human MM1.S cells assessed as late apoptotic cells at 5 micromol/L incubated for 48 hrs by annexin V/PI staining based flow cytometry (reference value: 3.6%). Conditions: dose 5 µmol/L, at 5 µM.
Assay [4] has as its system MM1.S. Nature of the assay: Induction of apoptosis in human MM1.S cells assessed as necrotic cells at 5 micromol/L incubated for 48 hrs by annexin V/PI staining based flow cytometry (reference value: 0.17%). Conditions: dose 5 µmol/L, at 5 µM.

SMILES strings stand for the structures.

For the compound `CCCc1cc(C)[nH]c(=O)c1CNC(=O)c1cc(-c2ccc(N3CCN(C(C)C)CC3)nc2)cc2c1cnn2C(C)C`, the Activity in assay [1] is 18.8%; in assay [3] it was 15.9%; in assay [4] it was 0.41%. Moreover, the viability at 5 µM in assay [2] was found to be 64.9%.

The values are drawn from ChEMBL document CHEMBL5647697, “Akt inhibition synergizes with polycomb repressive complex 2 inhibition in the treatment of multiple myeloma” (2019).
